Results: patent US20080004177A1, “Novel Copper-Containing Formulations” (priority 2003, published 2008)

Tested on: Septoria tritici
Assay: Growth assay with Septoria tritici as indicator fungus (photometric)
Type: cell-based
Conditions: active ingredient concentration in the spray mixture 1 ppm
Procedure: A growth assay was carried out with Septoria tritici as indicator fungus. The fungal growth was measured photometrically by the increase in absorption or light scattering as a function of mycelium density. The data obtained were converted into percent growth inhibition, the absorption of the untreated controls being defined as 0% inhibition and that of a killed spore suspension as reference as 100% inhibition.
The expected efficacies of combinations of active ingredients were determined using Colby's formula (Colby, S. R. (Calculating synergistic and antagonistic responses of herbicide combinations”, Weeds, 15, pp. 20-22, 1967)) and compared with the observed efficacies.
E=x+y−x·y/100 • E expected efficacy, expressed in % of the untreated control, when using the mixture of the active ingredients A and B at the concentrations a and b • x efficacy, expressed in % of the untreated control, when using the active ingredient A at the concentration a • y efficacy, expressed in % of the untreated control, when using the active ingredient B at the concentration b

Work on `COC(=O)N(OC)c1ccccc1COc1ccn(-c2ccc(Cl)cc2)n1` [II, Pyraclostrobin] yielded a Growth inhibition of 57%.
